Each structure is given as a SMILES string.

What all share (format): cell-based
The test system of one assay is VCaP cells. Nature of the assay: Inhibition of VCaP cell proliferation (WST-8). As to conditions: Homo sapiens, 168 hours. In a few lines: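 VCaP cells seeded at 15,000/well in DMEM + 10% FBS, treated next day with nine 5-fold dilutions from 10 µM (final) at 37°C, 5% CO2. Viability read by WST-8 absorbance at 450 nm on day 9.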
In another assay the test system is LNCaP cells. Nature of the assay: Inhibition of LNCaP cell proliferation (WST-8). Particulars: Homo sapiens, LNCaP FGC cells, 96 hours. The essentials:
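Cells were seeded and cultured overnight at 37 °C, 5% CO2, then exposed for 96 h to compound at 9 concentrations, 5-fold serial dilution from 10 µM final. Viability was read by WST-8 absorbance at 450 nm.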
On the technique in general: Tetrazolium assays rely on reduction of a dye to a coloured formazan, in cell work by metabolically active cells.

A further assay deals with T1, AR protein (Homo sapiens, UniProt P10275, T878A).
T1 construct: host or cells: LNCaP FGC
T1 sequence (P10275 1-920 T878A): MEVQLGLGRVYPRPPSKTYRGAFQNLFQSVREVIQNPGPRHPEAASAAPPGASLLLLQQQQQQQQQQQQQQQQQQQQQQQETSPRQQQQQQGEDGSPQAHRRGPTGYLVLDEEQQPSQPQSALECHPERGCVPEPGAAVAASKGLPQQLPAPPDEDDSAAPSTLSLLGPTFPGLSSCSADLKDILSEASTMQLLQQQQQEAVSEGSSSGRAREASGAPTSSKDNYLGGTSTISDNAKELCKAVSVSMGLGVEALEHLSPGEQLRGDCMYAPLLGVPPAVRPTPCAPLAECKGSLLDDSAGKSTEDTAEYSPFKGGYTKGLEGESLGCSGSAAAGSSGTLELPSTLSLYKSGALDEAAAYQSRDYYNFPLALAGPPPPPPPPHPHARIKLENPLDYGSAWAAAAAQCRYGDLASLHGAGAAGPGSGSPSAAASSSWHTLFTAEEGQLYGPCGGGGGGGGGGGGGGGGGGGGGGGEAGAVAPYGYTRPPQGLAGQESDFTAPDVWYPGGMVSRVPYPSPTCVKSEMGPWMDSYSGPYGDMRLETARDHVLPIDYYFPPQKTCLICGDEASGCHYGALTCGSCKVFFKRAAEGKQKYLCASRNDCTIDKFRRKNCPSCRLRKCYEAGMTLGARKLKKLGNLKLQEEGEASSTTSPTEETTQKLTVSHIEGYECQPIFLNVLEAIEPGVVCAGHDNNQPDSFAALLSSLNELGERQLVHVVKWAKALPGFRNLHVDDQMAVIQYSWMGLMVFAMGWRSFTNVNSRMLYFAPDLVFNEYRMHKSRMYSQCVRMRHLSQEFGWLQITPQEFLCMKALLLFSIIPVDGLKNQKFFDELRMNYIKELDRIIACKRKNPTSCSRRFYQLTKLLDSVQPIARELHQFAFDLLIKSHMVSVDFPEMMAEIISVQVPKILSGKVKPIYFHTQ
Nature of the assay: AR protein degradation in LNCaP cells (Western blot). As to conditions: 8 hours. In a few lines:
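LNCaP cells exposed to compound or solvent control for 8 h, lysed in RIPA, protein normalized by BCA. AR detected by SDS-PAGE/Western blot with infrared imaging; band grayscale normalized to GAPDH to calculate AR degradation rate.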

Take `COc1cc(O[C@H]2C(C)(C)[C@H](NC(=O)c3ccc(N4CCC(C)(CN5CCC6(CCc7cc(C(=O)N[C@H]8CCC(=O)NC8=O)c(F)cc7O6)CC5)CC4)cn3)C2(C)C)ccc1C#N` [A-P-43, 1'-((1-(6-(((1r,3r)-3-(4-cyano-3-methoxyphenoxy)-2,2,4,4-tetramethylcyclobutyl)carbamoyl)pyridin-3-yl)-4-methylpiperidin-4-yl)methyl)-N-((S)-2,6-dioxopiperidin-3-yl)-7-fluorospiro[chroman-2,4'-piperidin]-6-carboxamide]: the IC50 (usually the concentration that gives 50% inhibition) came out at 1550 nM in the assay with VCaP cells and 0.36 µM in the assay on LNCaP cells. In addition, the “Degradation of AR protein in LNCaP cells, 10 nM (%)” value on AR protein (10 nM) worked out at 8%. At AR protein (100 nM), the “Degradation of AR protein in LNCaP cells, 100 nM (%)” value was determined as 35%.

In the case of `COc1cc(O[C@H]2C(C)(C)[C@H](NC(=O)c3ccc(N4CCC(N5CC6(CCC7(CC6)COc6c7ccc7c6CN(C6CCC(=O)NC6=O)C7=O)C5)CC4)cc3)C2(C)C)ccc1C#N` (some centres unmarked) [A-P-2], the IC50 was 0.06 nM in the assay on VCaP cells and 2.89 µM with LNCaP cells. Moreover, the percent AR protein degradation at a fixed concentration at 0.01 µM at AR protein (10 nM) is -42%. In addition, the percent AR protein degradation at a fixed concentration at 0.1 µM on AR protein (100 nM) was found to be 43%.
